This is an account of results in patent US8987324B2, “Use of simalikalactone E as an anticancer agent” (Institut de Recherche pour le Developpement, priority 2011, dated 2015).

Like-named read-outs stand apart in the source and are kept apart here.

Series [1] relates to Plasmodium vinckei petteri. As to conditions: murine model of malaria, cited from earlier work.
In series [2] the test system is Rafl-dependent Erk1/2 (MAP kinase) phosphorylation. The series is described as follows: Rafl-dependent Erk1/2 phosphorylation in inducible HEK-Rafl-ER cells. The class given is cell-based. The conditions noted are these: 30 minutes preincubation, then 1 μM tamoxifen for 1 hour. How it is done: In the experiment presented in FIG. 6B, inducible HEK-Rafl-ER cells were used. These cells express the Raf kinase under the control of the estrogen receptor. The expression of Raf can therefore be induced in the presence of tamoxifen. The cells are preincubated for 30 minutes with increasing doses of Simalikalactone E or U0126, and then treated with 1 μM of tamoxifen for 1 hour. The cells are then lyzed and protein extracts are prepared for western blot analysis. The membranes are finally incubated in the presence of the various antibodies (p-Erk1/2, Erk1/2 and HSP60). Simalikalactone E and U0126 inhibit Rafl-dependent Erk1/2 (MAP kinase) phosphorylation.

In series [3] the test system is K562-Ima-S leukemia cell line. The series is described as follows: XTT cell viability, K562-Ima-S. The class given is cell-based. The conditions noted are these: 48 hours. The protocol:
(§1) B1-1. XTT Cell Viability Measurement
(§2) This test measures the activity of mitochondrial succinate dehydrogenase, which represents an index of cell viability. This enzyme converts XTT into orange formazan. On day 0, the K562-Ima-S (sensitive to Ima), K562-Ima-R (resistant to Ima), A375 or MeWo cells are seeded at 15 000 cells/well (100 μl) in 96-well microplates and stimulated with increasing concentrations of Simalikalactone E [50-500 nM]. After 24 or 48 hours, 50 μl of tetrazolium (XTT reagent) are added to each well and the optical density at 490 nm is read every 30 minutes for 2 to 4 hours. The values obtained, which are an index of mitochondrial metabolism, make it possible to evaluate the percentage of live cells. Each condition is systematically carried out in triplicate.
(§3) The K562-Ima-S and K562-Ima-R tumor lines are incubated for 48 hours with increasing concentrations of Simalikalactone E (0, 100 or 250 nM) in the absence or in the presence of a maximally effective concentration (50 μM) of z-Vad-fmk (Zvad), which is a pan-caspase inhibitor (apoptosis inhibitor).
A general note: Tetrazolium dyes change colour on reduction, which living cells bring about.

Series [4] concerns K562-Ima-R leukemia cell line. The series is described as follows: XTT cell viability, K562-Ima-R. The class given is cell-based. The conditions noted are these: 48 hours. How it is done: as §1, §2, §3
The test system of a further series is A375 melanoma cells. The series is described as follows: XTT cell viability, A375 melanoma cells. As to conditions: 48 hours; A375 carry B-raf V600E, MeWo do not. It counts as cell-based. The protocol:
as §1, §2
A375 and MeWo melanoma cells are then treated in the presence of increasing doses of Simalikalactone E. 48 hours later, the cells are subjected to an XTT test. The A375 cells carry the V600E mutation on the B-raf oncogene, which is reflected by constitutive activation of the Erk pathway.

The subject of another series is K562 cells. The series is described as follows: Clonogenic capacity of K562 cells. It counts as cell-based. The conditions noted are these: SkE 100, 250 or 500 nM versus 1 μM imatinib, 7 to 10 days. The protocol: B1-2. Evaluation of the Clonogenic Capacity of K562 Cells
Aliquots of methylcellulose (40% Methocult®, 1% L-glutamine, 5% FCS (fetal calf serum) and 54% IMDM (Iscove's modified Dulbecco's medium)) are heated for 1 h at 37° C. 400 μl of RPMI (Roswell Park Memorial Institute medium), 5% of FCS containing the treatment (1 μM imatinib, 100, 250 or 500 nM SkE), and then 10^3 K562 cells in 200 μl of medium are added to each aliquot. For each condition, 500 μl of the suspension obtained are then deposited in 3 wells of a 24-well plate. A nontreated condition serves as a control. The plates are incubated at 37° C. for 7 to 10 days. 75 μl of MTT tetrazolium salt (Roche) (2.5 mg/ml) are added to each well. The MTT tetrazolium salt is cleaved into purple-colored formazan crystals by the metabolically active cells. After incubation for 4 h at 37° C., the wells are photographed and the clones are quantified using the Image J program.

Series [5] concerns CD34+ Bcr-Abl+ primary cells from patients suffering from CML. The series is described as follows: XTT viability of CD34+ human primary cells from CML patients. The class given is cell-based. The conditions noted are these: 48 hours. How it is done:
The primary cells from patients suffering from CML (purified CD34+Bcr-Abl+) are incubated in the presence of variable concentrations of Simalikalactone E for 48 hours, and then the cell viability is quantified using an XTT colorimetric test. Imatinib (Ima) is used as a positive control for the induction of death of the Bcr-Abl+ cells.

For series [6], the system named is Erk1/2 kinase (MAP kinase) phosphorylation. The series is described as follows: Western blot of death markers and Erk1/2 phosphorylation, K562-Ima-S. The class given is cell-based. How it is done:
(§4) The characterization of the type of cell death involved in the effect of Simalikalactone E is carried out according to the following protocols: • apoptosis (type I cell death) is studied by assaying caspase activity, caspases being cysteine proteases involved in this type of process. The apoptosis is also quantified by annexin V/propidium iodide co-labeling, the cells which externalize the annexin V at the level of their […] being cells undergoing apoptosis, • autophagic death (type II cell death) is analyzed by assaying cathepsin activity, these proteases being, for their part, involved in the degradation of the intracellular material included in vesicles (autophagolysosomes). […] B1-4. Xenografts of K562-Luc Cells on Nude Mice
(§5) The K562-Ima-S (A) and K562-Ima-R (B) cells are treated for variable periods of time with 250 nM of Simalikalactone E. The cells are then lyzed and protein extracts are prepared for western blot analysis. Finally, the membranes are incubated in the presence of the various anti-PARP, LC3b, p-Erk1/2, Erk1/2 and HSP60 antibodies.
K562-Ima-S cells are then treated for 1 hour in the presence of 250 nM of Simalikalactone E or 10 μM of U0126 (specific inhibitor of MEK1/2, the kinase responsible for Erk1/2 (MAP kinase) phosphorylation and activation). The cells are then lyzed and protein extracts are prepared for western blot analysis. The membranes are then incubated in the presence of the p-Erk1/2, Erk1/2 and HSP60 antibodies.
(In western blotting, separated proteins are transferred to a membrane and probed.)

Series [7] has the same test system. Description: Western blot of death markers and Erk1/2 phosphorylation, K562-Ima-R. The class given is cell-based. As to conditions: 250 nM. The protocol:
as §4, §5

The next series deals with Vero mammalian cells. As to conditions: cited from earlier work.
Series [8] deals with gametocyte forms of Plasmodium falciparum. The conditions noted are these: compared with primaquine, reference molecule; cited from earlier work.
The conditions of series [9]: mice, orally for 4 days; cited from earlier work.
In the next series the test system is certain cell lines. As to conditions: cited from earlier work.

In the case of `CCN(CC)CCCC(C)Nc1ccnc2cc(Cl)ccc12` (centres unmarked) [chloroquine, reference compound], the “dose inhibiting 50% of the growth of Plasmodium vinckei petteri” value in series [1] (intraperitoneally) is 3 mg/kg/day.

Turning to `N#CC(=C(/N)Sc1ccccc1N)/C(C#N)=C(\N)Sc1ccccc1N` [U0126, reference compound], the “Rafl-dependent Erk1/2 (MAP kinase) phosphorylation” value in series [2] was “inhibit”.

Consider `CCC(C)C(=O)O[C@@H]1[C@H]2C(C)=CC(=O)[C@@H](O)[C@]2(C)[C@H]2[C@@H](O)[C@H](O)[C@@]3(C)OC[C@@]24[C@@H]1OC(=O)[C@H](OC(=O)C(C)CC)[C@@H]34` (some centres unmarked) [Simalikalactone E], for which the “effect on viability in the presence of caspase inhibitor z-Vad-fmk” value in series [3] (50 μM z-Vad-fmk) and in [4] (50 μM z-Vad-fmk) was “not modified” in each case. The “sensitivity (growth and viability)” value in series [3] (100 or 250 nM) and in series [4] (100 or 250 nM) was “sensitive” in each case. The “sensitivity in XTT test compared with MeWo cells” value in the series on A375 melanoma cells is “much more sensitive”. Besides, the “inhibition of clonogenic capacity” value in the series on K562 cells is listed as “as effectively as imatinib”. Moreover, the “inhibition of cell metabolism compared with imatinib” value in series [5] (500 nM) is “as effective as imatinib”. Besides, the EC50 in [5] (Homo sapiens, read-out: dose giving the half-maximum effect) was 0.1 µM. In addition, the “apoptosis marker (PARP cleavage)” value in series [6] (250 nM) and in series [7] was “no cleavage of PARP” throughout. In addition, the “autophagy marker (LC3 conversion)” value in series [6] (250 nM) and in [7] was “no modification of LC3” in each case. Also, in series [6] (250 nM SkE versus 10 μM U0126), the “concentration of U0126 relative to Simalikalactone E for equal effect (times higher)” value is 40. Moreover, the “inhibition of Erk1/2 phosphorylation compared with U0126” value in [6] (250 nM SkE versus 10 μM U0126, 1 hour) is recorded as “as effective as U0126”. In addition, the “Erk1/2 kinase (MAP kinase) phosphorylation” value in series [6] (250 nM, variable periods of time, imatinib-sensitive cells) is recorded as “inhibits”; in series [7] (variable periods of time, imatinib-resistant cells), “inhibits”. In addition, the “Rafl-dependent Erk1/2 (MAP kinase) phosphorylation” value in series [2] was “inhibit”. The selectivity index result in the series with Vero mammalian cells (Vero cells versus Plasmodium falciparum) is on record as “greater than 100”. For the same compound, the IC50 in the series on Vero mammalian cells (read-out: dose inhibiting 50% of the growth of Vero mammalian cells) is 6.57 µM. Moreover, the “concentration reducing the gametocyte level by 50%, relative to primaquine” value in [8] is listed as “seven times lower”. Also, the “dose inhibiting 50% of the growth of Plasmodium vinckei petteri” value is on record as 0.5 mg/kg/day in [1] (intraperitoneally) and 1 mg/kg/day in [1] (orally). Besides, the dose tolerated in [9] was 1 mg/kg/day. Besides, the cytotoxic action entry in the series on certain cell lines was “moderate”.
